Results on five compounds are retold here after patent publication US6413995B1, “Cinnamamide derivatives and drug compositions containing the same” (Tsumura & Co., priority 1999, dated 2002).

Usually melting point stands for the temperature, or range, at which the solid turns liquid.

Read-outs that look alike come from different tables or passages of the source.

For series [1], the system named is Rats with Minimal Change Nephrosis. The experiment in a line: Inhibitory effects on urinary proteins in rats with minimal change nephrosis (Puromycin Aminonucleoside). Type of series: in vivo. The settings on record: S.D. male rats, PA 50 mg/kg i.v., test drug 2 mg/kg/day from day 6 to day 11, assayed at day 11. How it is done: Six week old S.D. male rats were intravenously injected with Puromycin Aminonucleoside (PA; SIGMA)at a dose of 50 mg/kg so as to develop nephrosis. Six days after PA treatment, the rats were administered with a test drug at a dose of 2 mg/kg/day by day 11. Each rat was assayed for an excreted urinary protein level at day 11 to determine an inhibitory rate.

The next series deals with T1, Thromboxane A2 Synthase (Rattus norvegicus, UniProt P49430).
T1 construct: centrifuged at 1,300 rpm for 7 minutes to obtain platelet rich plasma (PRP); from tissue; host or cells: platelet rich plasma (washed platelets) from the abdominal aorta blood of Sprague-Dawley rats
T1 sequence (P49430 1-533): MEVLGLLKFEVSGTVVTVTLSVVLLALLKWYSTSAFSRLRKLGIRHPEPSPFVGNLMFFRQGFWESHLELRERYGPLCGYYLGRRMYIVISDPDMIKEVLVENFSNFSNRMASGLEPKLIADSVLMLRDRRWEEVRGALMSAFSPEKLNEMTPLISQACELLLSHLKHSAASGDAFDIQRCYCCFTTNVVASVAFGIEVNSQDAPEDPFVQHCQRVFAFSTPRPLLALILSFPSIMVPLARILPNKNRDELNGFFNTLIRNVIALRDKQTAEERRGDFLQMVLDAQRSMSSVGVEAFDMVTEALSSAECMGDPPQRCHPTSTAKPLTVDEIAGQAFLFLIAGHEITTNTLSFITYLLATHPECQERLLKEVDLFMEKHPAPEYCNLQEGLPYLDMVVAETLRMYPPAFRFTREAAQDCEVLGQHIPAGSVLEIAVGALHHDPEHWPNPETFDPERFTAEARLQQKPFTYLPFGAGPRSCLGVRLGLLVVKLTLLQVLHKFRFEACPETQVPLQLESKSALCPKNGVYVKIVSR
The experiment in a line: Inhibitory effect on thromboxane A2 synthase: TXB2 in rat platelet rich plasma. In kind it is cell-based, rats. The settings on record: 10 μmol/l, rat PRP. How it is done: Eight week old Sprague-Dawley male rats were used in this example. The rats were anesthetized with pentobarbital sodium. The blood was collected from the abdominal aorta using a heparinized syringe, and centrifuged at 1,300 rpm for 7 minutes to obtain platelet rich plasma (PRP). PRP was suspended in an equivalent volume of a buffer containing 25 mmol/l Tris-HCl, 130 mmol/l sodium chloride and 0.3 mmol/l EDTA (pH 7.4)(buffer A), followed by centrifugation at 4° C., at 1,500 rpm for 5 minutes. This procedure was repeated twice, and PRP was finally suspended in a buffer containing 25 mmol/l Tris-HCl, 130 mmol/l, 0.1% glucose and 0.1% albumin (pH7.4)(buffer B).
5×10^6 cells/mm^3 PRP preparation in buffer B was divided into each well of a 96-well plate in an amount of 150 μl/well. Each test substance was prepared at a final concentration of 10 μmol/l and added to the PRP preparation in an amount of 50 μl/well. Immediately after addition of the test substance, 5 μl of an aggregation-inducing agent, type IV collagen (1 mg/ml) or arachidonic acid (50 mmol/l), was added and incubated for 10 minutes. 20 μl of an EDTA-indomethacin solution was added to the each well to stop the reaction. The supernatant was assayed for thromboxane B2 (TXB2), stable metabolite of thromboxane A2 (TXA2), using a TXB2 measurement kit (Cayman).

Another series concerns IL-10. Kind of series: Inhibition of IL-10 production by mouse peritoneal macrophages (ELISA). The settings on record: Macrophage, 48 hours, read-out: Inhibitory rate (%) IL-10; for inhibition at 10 µg/mL: 10 μg/ml. In kind it is cell-based, mice. How it is done:
(§1) C57BL/6CrSlc male mice were intraperitoneally injected with 2.0 ml of 3% Brewer tioglycolate medium. Three days later, macrophages were collected from the abdominal cavity with 5.0 ml Hank's balanced salt solution, and then equally divided into each well of a 48-well plate using RPMI 1640 medium supplemented with 10% FBS (Fetal Bovine Serum), followed by incubation in a CO2 incubator for 1 hour. After the macrophages adhered to the walls of the plate, they were incubated for 48 hours in the presence of a test compound with different concentrations. Following the incubation, the supernatant was collected from each well, assayed for IL-6, IL-10 and L-12 by ELISA to determine inhibitory rates against the production of these interleukins.
(In general: An ELISA detects its analyte on a solid surface through an enzyme-linked reagent.)

Another series concerns IL-6. Kind of series: Inhibition of IL-6 production by mouse peritoneal macrophages (ELISA). The settings on record: Macrophage, 48 hours, read-out: Inhibitory rate (%) IL-6; for inhibition at 10 µg/mL: 10 μg/ml. Type of series: cell-based, mice. How it is done:
as §1

The next series concerns IL-12. The experiment in a line: Inhibition of IL-12 production by mouse peritoneal macrophages (ELISA). Type of series: cell-based, mice. The settings on record: Macrophage, 48 hours, read-out: Inhibitory rate (%) IL-12; for inhibition at 10 µg/mL: 10 μg/ml; for inhibition at 10 µM: 10 μM/L. How it is done:
as §1

`Cl.O=C(O)CCc1ccc(/C=C/C(=O)NCc2cccnc2)cc1` showed a melting point of 212 °C.
`CCOC(=O)COc1ccc(/C=C/C(=O)NCc2cccnc2)cc1` [Example 1, Ethyl [4-[(E)-2-[N-(3-Pyridylmethyl)carbamoyl]ethenyl]phenoxy]acetate]: the “Inhibitory rate (%) of excreted urinary protein level” value in series [1] was found to be 41%. The inhibition at 10 µM at Thromboxane A2 Synthase (arachidonic acid, 10 minutes, read-out: TXB2 induced by arachidonic acid (Inhibitory rate; %)) is 67%; on Thromboxane A2 Synthase (type IV collagen, 10 minutes, read-out: TXB2 induced by collagen (Inhibitory rate; %)), 32%; on Thromboxane A2 Synthase (summary of Table 3, read-out: inhibitory activity against TXA2 production mediated by collagen or arachidonate), at least 50%. Also, the inhibition at 1 µg/mL in the series on IL-10 (1 μg/ml) turned out to be 2.1%; in the series with IL-6 (1 μg/ml), 29.3%; with IL-12 (1 μg/ml), 32.4%. Besides, the inhibition at 5 µg/mL in the series with IL-10 (5 μg/ml) was 29.1%; in the series with IL-6 (5 μg/ml), 34.5%; with IL-12 (5 μg/ml) it was 39.5%. For the same compound, the inhibition at 10 µg/mL is 23.7% with IL-10, 40.4% in the series on IL-6 and 64.6% in the series with IL-12.
`Cl.O=C(O)COc1ccc(/C=C/C(=O)NCc2cccnc2)cc1` [Example 36, [4-[(E)-2-[N-(3-pyridylmethyl)carbamoyl]ethenyl]phenoxy]acetic acid hydrochloride]: the “Inhibitory rate (%) of excreted urinary protein level” value in series [1] amounted to 29%. Further, the inhibition at 10 µg/mL in the series with IL-10 is -45.8%; in the series on IL-6, 53.1%; in the series on IL-12 it was 52.1%. For the same compound, the inhibition at 50 µg/mL in the series on IL-10 (50 μg/ml) was -13%; in the series on IL-6 (50 μg/ml), 56.7%; with IL-12 (50 μg/ml) it was 82.1%. Also, the inhibition at 100 µg/mL in the series on IL-10 (100 μg/ml) came out at 22.2%; with IL-6 (100 μg/ml), 21.7%; in the series with IL-12 (100 μg/ml), 64%.
`C/C(=C\C(=O)NCc1cccnc1)c1ccc(OCC(=O)O)cc1` [Example 86, [4-[(E)-1-methyl-2-[N-(3-pyridylmethyl)carbamoyl]ethenyl]phenoxy]acetic acid] had a melting point of 228 to 229 °C. The inhibition at 10 µM in the series on IL-12 worked out at 48.4%.
The matching figures for `O=C(O)CSc1ccc(/C=C/C(=O)NCc2cccnc2)cc1` [Example 89, [[4-[(E)-2-[N-(3-pyridylmethyl)carbamoyl]ethenyl]phenyl]thio]acetic acid]: 160 to 161 °C and 51.1%.
